Converted amounts (≈) assume the structure as drawn. “And” between values parts separate entries of the source, which are not always exact repeats. Equal values may be shown once. Read-outs that look alike come from different tables or passages of the source. Marks after values point to notes of the source that are not given here.
What was measured:
[1] = system: A. castellanii trophozoites; experiment: Cytotoxicity assay on trophozoites (resazurin / alamarBlue); type: cell-based, Acanthamoeba castellanii ATCC 50370; settings: for IC50: Acanthamoeba castellanii
Experimental: (§1) Acanthamoeba castellanii ATCC 50370 trophozoites and cysts were cultured in Peptone Glucose (PG) medium and encystment medium (Chagla A H, Griffiths A J (1974) Microbiology: 85(1): 139-145) respectively at 25° C. Cysts were prepared by incubating trophozoites for 8 days in encystment medium and integrity validated with calcofluor (0.25 μg/ml) assay (Gatti S et al (2010) J. Med. Microbiol.; 59: 1324-1330) or sodium dodecyl sulfate (SDS, 0.5% w/v) disintegration assay (Dudley R et al (2005) Acta Trop.; 9: 100-8) and microscopic observation.
The compounds used in this study all contained alkyl-carbon chains: three APCs [dodecyl-PC (APC12), tetradecyl-PC. (APC14) and hexadecyl-PC (APC16)] (Anatrace) and four QACs [docdecyl-TMAB (QAC12), tetradecyl-TMAB (QAC14), hexadecyl-TMAB (QAC16) and octadecyl-TMAB (QAC18)](Sigma). All were prepared to a stock concentration of 1 mg/ml and diluted as required by the experimental protocol in the cytotoxicity assays. […]
[…] Resazurin (7-Hydroxy-31-phenoxazin-3-one 10-oxide; 5 mg/ml; McBride J et al (2005) J. Clin. Microbiol.; 43: 629-634) and trypan blue (0.4 μg/ml; Mafra C S P et al (2013) Investig. Ophthalmol. Vis. Si.; 54: 6363-6372) were then added to trophozoites and cysts respectively after being exposed to the compounds and the cell viability estimated microscopically and from changes in absorbance (at 595 nm and 570 nm) respectively.
(§2) Efficacy was expressed as a percentage of untreated controls for each drug concentration used and the data used to calculate the IC50. Cell density was estimated using the modified Neubaur hemocytometer and expressed as cells/ml.

[2] = cited from earlier work; for CMC value: APCs
[3] = system: Acanthamoeba trophozoites; experiment: Checkerboard dilution QAC-APC interaction (Bliss model); type: cell-based, Acanthamoeba castellanii; settings: APC12, APC14, APC16; 96 h at 25° C.
Experimental: Acanthamoeba trophozoites (10^5 cells/ml. n=5/treatment) treated with 100 μg/ml doubly diluted to 0.06 μg/ml of QAC12 (FIG. 7A), […], QAC16 (FIG. 7C) and QAC18 (FIG. 7D) with APC 12 (i), APCI 4 (ii) and APC16 (iii) for 96 h at 25° C. Cell viability estimated by the alamarBlue assay the dose-response curves used to produce a surface analysis (right panel) and the interaction profile determined using the Bliss model. The degree of interaction characterised by the QCScore heuristic score are produced as heat map (left panel). The colour of each cell in the heatmap and the surface analysis represents the assay response at that dose combination; red to orange, antagonistic: yellow to green, additive and blue, synergistic.
The change in potency between QAC and APC prompted us to used the checkerboard dilution method to identify synergistic interactions (FIG. 7A-D). Three interaction profiles, antagonistic (orange to red), additive (yellow to green) and synergistic (blue) were observed, with optimal synergistic interactions deemed to be significant occurring between 20-38%; (FIG. 7).

[4] = system: A. castellanii trophozoites; experiment: Drug wash-out / alamarBlue-reversion assay, trophozoites; type: cell-based, Acanthamoeba castellanii ATCC 50370
A. castellanii cysts [5] = experiment: Cytotoxicity assay on cysts (trypan blue); type: cell-based, Acanthamoeba castellanii ATCC 50370; settings: Acanthamoeba castellanii
Experimental: as §1
The compounds used in this study all contained alkyl-carbon chains: three APCs [dodecyl-PC (APC12), tetradecyl-PC. (APC14) and hexadecyl-PC (APC16)] (Anatrace) and four QACs [docdecyl-TMAB (QAC12), tetradecyl-TMAB (QAC14), hexadecyl-TMAB (QAC16) and octadecyl-TMAB (QAC18)](Sigma). All were prepared to a stock concentration of 1 mg/ml and diluted as required by the experimental protocol in the cytotoxicity assays. A. castellanii trophozoites and cysts (at 10^5 cells/ml) with or without APCs or QACs (concentrations ranging from […] doubly diluted to 0.04 μg/ml to a final volume of 100 μl) in a 96-well plate were incubated at 25° C. for a duration determined by the experimental protocol.
(§3) For the combined assay, similar concentrations of QAC18 and APC16 were prepared and 18.75 μg/ml and 37.5 μg/ml of QAC12 added (to a final volume of 100 μl) were added to 10^5 cells/mi in a 96-well plate and later incubated at 25° C. for a duration determined by the experimental protocol. Resazurin (7-Hydroxy-31-phenoxazin-3-one 10-oxide; 5 mg/ml; McBride J et al (2005) J. Clin. Microbiol.; 43: 629-634) and trypan blue (0.4 μg/ml; Mafra C S P et al (2013) Investig. Ophthalmol. Vis. Si.; 54: 6363-6372) were then added to trophozoites and cysts respectively after being exposed to the compounds and the cell viability estimated microscopically and from changes in absorbance (at 595 nm and 570 nm) respectively.
as §2

A. castellanii cysts [6] = experiment: Drug wash-out / alamarBlue-reversion assay, cysts; type: cell-based, Acanthamoeba castellanii ATCC 50370; settings: Cysts; also: key: +: indicates cells reverting back to trophozoites after washout; and capable of oxidizing reduced alamarBlue from blue to pink after 8 days; −: indicates cell that did not revert to trophozoites after wash-out and unable to oxidise reduced alamarBlue solution
Experimental: For the drug kinetic assay, viability was assessed by the linked alamarBlue-reversion assay. Drug-treated cysts were washed with PBS and fresh PG medium was added to allow reversion to trophozoites for 5 days, after which, alamar blue was added and viability estimated as described above.
The cysticidal activity of QAC16 to QAC18 strongly correlated with (a) the alkyl-carbon chain lengths (Table 2) and the duration of drug contact (FIG. 8H). Like trophozoites, death was via leakage judged by 40% and 50% increase in DNA and proteins in the external milieu after 1 h (FIGS. 9A and 9B). To investigate if the cyst were viable, a complementary viability assay that involved, drug washout, incubation in PG medium to allow reversion of viable cyst to trophozoite for 7 days, and estimation of viability using the oxidation of resazurin after 6 h.

[7] = system: A. castellanii trophozoites; experiment: Combined assay with fixed QAC12 (alamarBlue); type: cell-based, Acanthamoeba castellanii ATCC 50370; settings: for IC50: Acanthamoeba castellanii, 96 h, 96 h at 25° C.
Experimental: Acanthamoeba trophozoites (10^5 cells/ml. n=5/treatment) treated with 100 μg/ml doubly diluted to 0.06 μg/ml of QAC18 (a,b) or APC16 (c,d) for 96 h at 25° C. […] Similarly. APC16 alone at the same concentration (closed circle, FIG. 6C, FIG. 6D) in combination with QAC12 at 18.75 μg/ml (open squares, d) QAC12 at […] (open squares, FIG. 6C). Data are mean absorbance at 595 nm t SD; n=4 independent experiments performed in triplicates. IC50s were not statistically significant between QAC12 at both concentrations and QAC16 (p>0.05, FIG. 6A, FIG. 6B) but significant with APC16 (p<0.05, FIG. 6C, FIG. 6D).
as §3

[8] = system: A. castellanii trophozoites; experiment: Morphometric analysis of trophozoites; type: cell-based, Acanthamoeba castellanii ATCC 50370
Experimental: Acanthamoeba trophozoites ([…]) incubated without (FIG. 2A), with QAC18 at 37.5 μg/ml for 1 h at 25° C. (FIG. 2B), and 0.5% SDS for 30 min (FIG. 2C). QAC18 reduced trophozoites sizes from 29.02±0.23 (FIG. 2A) to 7.87 f 0.93 (FIG. 2B) which disintegrated after 30 min treatment with SDS (FIG. 2C).
A. castellanii trophozoites incubated with and without QAC for a duration determined by experimental protocol were examined microscopically and their sizes measured using the Open Laboratory (Improvision) calibration graticule. The mean body sizes were determined.

[9] = Table 5, 72 h and 96 h at 26° C., alamar blue, read-out: IC50 Acanthamoeba trophozoites
[10] = Table 4, read-out: IC50 against Acanthamoeba spp

## CCCCCCCCCCCCOP(=O)([O-])OCC[N+](C)(C)C [APC12, Dodecylphosphocholine]
[1]; [9]
  IC50: 22.9 µg/mL and 65.2 µM
[2]
  CMC value: 1000.00* μM

## CCCCCCCCCCCCCC[N+](C)(C)C.[Br-] [QAC14, tetradecyltrimethyl ammonium bromide]
[1]; Table 2, read-out: IC50 A. castellanii trophozoites
  IC50: 9.07 µg/mL and 27 µM
[2]; QACs
  CMC: 2.9 ± 0.1 µM
[3]
  Interaction profile of QAC combined with APCs: less frequent and ‘noisy’
[4]; 9.375 μg/ml, 1 h
  Back transformation to trophozoites after drug wash-out: +
[4]; 9.375 μg/ml, 24 h
  Back transformation to trophozoites after drug wash-out: +
[4]; 9.375 μg/ml, 48 h
  Back transformation to trophozoites after drug wash-out: +
[4]; 9.375 μg/ml, 72 h
  Back transformation to trophozoites after drug wash-out: +
[4]; 9.375 μg/ml, 96 h
  Back transformation to trophozoites after drug wash-out: +
[4]; 18.75 μg/ml, 1 h
  Back transformation to trophozoites after drug wash-out: +
[4]; 18.75 μg/ml, 24 h
  Back transformation to trophozoites after drug wash-out: +
[4]; 18.75 μg/ml, 48 h
  Back transformation to trophozoites after drug wash-out: +
[4]; 18.75 μg/ml, 72 h
  Back transformation to trophozoites after drug wash-out: +
[4]; 18.75 μg/ml, 96 h
  Back transformation to trophozoites after drug wash-out: +
[4]; 37.50 μg/ml, 1 h
  Back transformation to trophozoites after drug wash-out: +
[4]; 37.50 μg/ml, 24 h
  Back transformation to trophozoites after drug wash-out: −
[4]; 37.50 μg/ml, 48 h
  Back transformation to trophozoites after drug wash-out: −
[4]; 37.50 μg/ml, 72 h
  Back transformation to trophozoites after drug wash-out: −
[4]; 37.50 μg/ml, 96 h
  Back transformation to trophozoites after drug wash-out: −
[4]; after 24 h at 18.75 μg/ml
  Amoebotoxicity after wash-out and replacement with PG medium: amoebotoxic
A. castellanii cysts [5]; Table 2, read-out: IC50 A. castellanii cysts
  IC50: 22.1 µg/mL and 65 µM
A. castellanii cysts [5]; after 96 h, trypan blue viability assay, read-out: Estimated IC50 against matured cysts
  IC50: 15 µg/mL
A. castellanii cysts [6]; 9.375 μg/ml, 24 h
  Back transformation to trophozoites after drug wash-out: +
A. castellanii cysts [6]; 9.375 μg/ml, 48 h
  Back transformation to trophozoites after drug wash-out: +
A. castellanii cysts [6]; 9.375 μg/ml, 72 h
  Back transformation to trophozoites after drug wash-out: +
A. castellanii cysts [6]; 18.75 μg/ml, 24 h
  Back transformation to trophozoites after drug wash-out: +
A. castellanii cysts [6]; 18.75 μg/ml, 48 h
  Back transformation to trophozoites after drug wash-out: +
A. castellanii cysts [6]; 18.75 μg/ml, 72 h
  Back transformation to trophozoites after drug wash-out: +
A. castellanii cysts [6]; 37.50 μg/ml, 24 h
  Back transformation to trophozoites after drug wash-out: +
A. castellanii cysts [6]; 37.50 μg/ml, 48 h
  Back transformation to trophozoites after drug wash-out: +
A. castellanii cysts [6]; 37.50 μg/ml, 72 h
  Back transformation to trophozoites after drug wash-out: +

## CCCCCCCCCCOP(=O)([O-])OCC[N+](C)(C)C [APC10, Decylphosphocholine]
[1]; [10]
  IC50: 58 ± 0.9 µg/mL (≈ 179 µM)

## CCCCCCCCCCCC[N+](C)(C)CCCCCCCCCCCC.[Br-] [DAB, Didodecyldimethyl ammonium bromide]
[1]; [10]
  IC50: 27 ± 2.2 µg/mL

## CC(C)CCC(CCC(C)C)OP(=O)([O-])OCC[N+](C)(C)C [APC11PC, 2,8-Dimethyl-5-Nonylphosphocholine]
[1]; [10]
  IC50: > 37.5 µg/mL

## CCCCCCCCOP(=O)([O-])OCC[N+](C)(C)C [APC8, Octylphosphocholine]
[1]; [10]
  IC50: 46.4 ± 2.3 µg/mL (≈ 157 µM)

## CCCCCCCCCCCCCCOP(=O)([O-])OCC[N+](C)(C)C [APC14, Tetradecylphosphocholine]
[1]; [10]
  IC50: 8.9 ± 0.2 µg/mL (≈ 23.5 µM)
[1]; [9]
  IC50: 8.9 µg/mL and 23.4 µM
[2]
  CMC value: 120.00* μM

## CCCCCCCCCCCCCCCCCCOP(=O)([O-])OCC[N+](C)(C)C [APC18, Octadecylphosphocholine]
[1]; [10]
  IC50: 3 ± 0.3 µg/mL (≈ 6.89 µM)

## CCCCCCCCCCCCCCCCOP(=O)([O-])OCC[N+](C)(C)C [APC16, Hexadecylphosphocholine]
[1]; [10]
  IC50: 7.9 ± 0.3 µg/mL (≈ 19.4 µM)
[1]; [9]
  IC50: 7.9 µg/mL and 19.4 µM
[2]
  CMC value: 13.00* μM
[7]; APC16 at 3.12, 4.68, 6.25 and 9.36 μg/ml combined with QAC12, not alone
  Effect after drug wash-out (inability to oxidise resazurin): cytotoxic
[7]; QAC12 at 18.75 μg/ml, read-out: Estimated IC50 of APC16 with QAC12
  IC50: 3.4 µg/mL
[7]; QAC12 at 37.5 μg/ml, read-out: Estimated IC50 of APC16 with QAC12
  IC50: 2.5 µg/mL
[7]; without QAC12, read-out: IC50 of APC16 only control
  IC50: 7.6 µg/mL
[4]; 12.5 μg/ml to 100 μg/ml after 96 h
  Effect after APC16 wash-out and incubation in PG medium: amoebostatic
[8]
  Reduction in trophozoite size relative to untreated: 4 fold

## 10-Undecylenyl-1-phosphocholine [APC11UPC]
[1]
  Increase in activity relative to saturated counterpart APC12: 3 fold
[1]; Table 4
  IC50 against Acanthamoeba spp: 3.1 ± 0.4 µg/mL

From patent US20230102836A1, “Amoebicidal Compositions for Contact Lens Solutions” (University of the West of Scotland, priority 2019, published 2023)
